Measurements as given in the supplement of paper PMC12463676, “Small-molecule dissolution of stress granules by redox modulation benefits ALS models” (Nature Chemical Biology, 2025).

What was measured:
lipoamide = compound: NC(=O)CCCCC1CCSS1 [lipoamide]; assay: thermal stability z-score vs DMSO; higher = more thermally stabilized by treatment; settings: HeLa, lipoamide concentration 100 µM
Method: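 Cellular thermal proteome profiling in HeLa cells. Cells were treated with 100 µM lipoamide for 1 h, with or without 1 mM arsenate for a further 1 h, then heated to ten temperatures (37-66.3 °C), and soluble protein was quantified by TMT mass spectrometry relative to 0.1% DMSO controls. The thermal stability score (sum of log2 fold changes minus the abundance score) was transformed to a z-score; mean of n = 3 experiments.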

potassium arsenate = compound: O=[As]([O-])(O)O.[K+] [potassium arsenate]; assay: as above; settings: HeLa; arsenate concentration 1 mM
Method: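 Cellular thermal proteome profiling in HeLa cells treated with 1 mM arsenate for 1 h (DMSO pretreatment), heated to ten temperatures (37-66.3 °C). Soluble protein was quantified by TMT mass spectrometry relative to DMSO controls; the thermal stability score was transformed to a z-score; mean of n = 3 experiments.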

[1] = arsenate co-treatment: 1 mM arsenate 1 h
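Note: each temperature applied for 3 min, abundance score taken as mean log2 fold change at the two lowest temperatures, z-score obtained by mean subtraction and division by SD.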

UniProt O00487, sequence (O00487 whole entry): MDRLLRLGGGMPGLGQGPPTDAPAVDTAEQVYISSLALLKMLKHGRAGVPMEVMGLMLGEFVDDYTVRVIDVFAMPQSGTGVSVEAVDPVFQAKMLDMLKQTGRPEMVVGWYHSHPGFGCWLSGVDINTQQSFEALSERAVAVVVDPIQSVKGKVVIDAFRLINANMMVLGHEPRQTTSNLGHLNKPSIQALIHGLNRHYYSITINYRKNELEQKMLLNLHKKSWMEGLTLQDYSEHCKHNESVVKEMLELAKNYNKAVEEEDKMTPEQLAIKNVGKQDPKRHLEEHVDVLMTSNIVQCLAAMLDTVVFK
UniProt Q969U7, sequence (Q969U7 whole entry): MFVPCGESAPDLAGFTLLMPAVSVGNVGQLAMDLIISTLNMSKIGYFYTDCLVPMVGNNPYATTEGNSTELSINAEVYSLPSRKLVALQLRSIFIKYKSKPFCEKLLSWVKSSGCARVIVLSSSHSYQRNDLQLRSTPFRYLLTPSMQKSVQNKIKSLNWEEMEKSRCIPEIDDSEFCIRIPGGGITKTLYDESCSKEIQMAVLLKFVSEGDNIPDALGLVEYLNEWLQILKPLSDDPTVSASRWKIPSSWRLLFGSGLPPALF
UniProt P17980, sequence (P17980 whole entry): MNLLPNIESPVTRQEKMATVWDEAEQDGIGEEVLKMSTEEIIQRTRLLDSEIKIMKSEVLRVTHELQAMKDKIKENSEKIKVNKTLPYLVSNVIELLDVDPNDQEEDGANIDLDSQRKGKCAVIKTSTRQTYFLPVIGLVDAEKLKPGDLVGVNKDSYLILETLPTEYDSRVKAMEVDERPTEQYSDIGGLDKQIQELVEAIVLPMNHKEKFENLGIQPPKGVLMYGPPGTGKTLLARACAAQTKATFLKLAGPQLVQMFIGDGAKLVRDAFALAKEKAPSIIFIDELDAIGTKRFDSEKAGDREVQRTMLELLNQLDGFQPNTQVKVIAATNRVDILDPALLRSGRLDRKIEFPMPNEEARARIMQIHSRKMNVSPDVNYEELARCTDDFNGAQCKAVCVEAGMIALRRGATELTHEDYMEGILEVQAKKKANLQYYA
UniProt Q14997, sequence (Q14997 whole entry): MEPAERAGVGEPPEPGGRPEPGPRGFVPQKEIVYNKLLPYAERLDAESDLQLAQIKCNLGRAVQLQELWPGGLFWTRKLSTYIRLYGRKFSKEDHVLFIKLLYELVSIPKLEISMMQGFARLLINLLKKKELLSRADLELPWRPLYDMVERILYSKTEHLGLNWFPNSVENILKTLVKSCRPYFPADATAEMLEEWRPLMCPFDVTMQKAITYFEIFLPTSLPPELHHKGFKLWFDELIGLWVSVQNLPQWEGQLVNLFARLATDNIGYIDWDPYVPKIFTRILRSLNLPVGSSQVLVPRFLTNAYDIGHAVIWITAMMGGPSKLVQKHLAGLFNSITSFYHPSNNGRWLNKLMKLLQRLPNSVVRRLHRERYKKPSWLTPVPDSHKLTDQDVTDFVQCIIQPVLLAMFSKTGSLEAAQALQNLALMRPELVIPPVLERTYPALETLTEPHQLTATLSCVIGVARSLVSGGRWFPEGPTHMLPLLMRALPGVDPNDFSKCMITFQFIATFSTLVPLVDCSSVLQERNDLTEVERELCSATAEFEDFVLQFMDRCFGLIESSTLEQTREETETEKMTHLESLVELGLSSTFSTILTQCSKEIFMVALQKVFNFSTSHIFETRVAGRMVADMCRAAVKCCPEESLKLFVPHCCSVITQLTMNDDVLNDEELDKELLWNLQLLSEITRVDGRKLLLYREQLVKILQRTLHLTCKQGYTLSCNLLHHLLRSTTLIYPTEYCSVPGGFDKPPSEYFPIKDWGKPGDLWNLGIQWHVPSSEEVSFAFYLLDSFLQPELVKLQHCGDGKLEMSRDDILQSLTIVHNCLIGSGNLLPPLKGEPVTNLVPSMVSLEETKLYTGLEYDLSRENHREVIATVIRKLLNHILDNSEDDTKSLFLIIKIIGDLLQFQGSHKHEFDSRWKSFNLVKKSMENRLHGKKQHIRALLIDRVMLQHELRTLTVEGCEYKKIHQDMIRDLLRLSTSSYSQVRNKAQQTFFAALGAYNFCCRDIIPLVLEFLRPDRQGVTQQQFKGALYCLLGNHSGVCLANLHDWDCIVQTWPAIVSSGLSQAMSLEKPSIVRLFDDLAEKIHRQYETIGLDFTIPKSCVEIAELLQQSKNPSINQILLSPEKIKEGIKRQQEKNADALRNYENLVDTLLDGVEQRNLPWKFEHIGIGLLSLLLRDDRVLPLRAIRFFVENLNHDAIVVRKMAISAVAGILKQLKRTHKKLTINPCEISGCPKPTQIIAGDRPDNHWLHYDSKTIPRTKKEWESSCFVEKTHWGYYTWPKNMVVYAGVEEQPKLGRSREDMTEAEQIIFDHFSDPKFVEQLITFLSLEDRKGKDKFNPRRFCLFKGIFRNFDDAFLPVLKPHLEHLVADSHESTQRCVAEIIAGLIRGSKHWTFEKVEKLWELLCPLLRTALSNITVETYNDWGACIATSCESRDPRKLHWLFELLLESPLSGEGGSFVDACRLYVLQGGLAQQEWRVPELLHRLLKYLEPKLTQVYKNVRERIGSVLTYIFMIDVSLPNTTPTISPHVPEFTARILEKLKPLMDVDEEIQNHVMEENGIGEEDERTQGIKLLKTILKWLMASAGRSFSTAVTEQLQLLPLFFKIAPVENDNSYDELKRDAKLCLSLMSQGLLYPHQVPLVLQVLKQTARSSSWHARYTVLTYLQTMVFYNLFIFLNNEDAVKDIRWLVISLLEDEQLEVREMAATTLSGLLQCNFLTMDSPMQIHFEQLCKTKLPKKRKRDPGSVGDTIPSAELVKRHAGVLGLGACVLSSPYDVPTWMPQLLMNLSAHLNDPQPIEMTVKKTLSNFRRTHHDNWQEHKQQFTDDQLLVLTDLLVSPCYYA
UniProt O75832, sequence (O75832 whole entry): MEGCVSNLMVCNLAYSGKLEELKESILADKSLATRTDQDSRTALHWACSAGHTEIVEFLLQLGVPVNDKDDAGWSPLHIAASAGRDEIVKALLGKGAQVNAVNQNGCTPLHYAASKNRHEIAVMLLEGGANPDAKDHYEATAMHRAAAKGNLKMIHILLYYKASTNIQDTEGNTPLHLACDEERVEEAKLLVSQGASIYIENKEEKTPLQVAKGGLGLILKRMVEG
UniProt O00231, sequence (O00231 whole entry): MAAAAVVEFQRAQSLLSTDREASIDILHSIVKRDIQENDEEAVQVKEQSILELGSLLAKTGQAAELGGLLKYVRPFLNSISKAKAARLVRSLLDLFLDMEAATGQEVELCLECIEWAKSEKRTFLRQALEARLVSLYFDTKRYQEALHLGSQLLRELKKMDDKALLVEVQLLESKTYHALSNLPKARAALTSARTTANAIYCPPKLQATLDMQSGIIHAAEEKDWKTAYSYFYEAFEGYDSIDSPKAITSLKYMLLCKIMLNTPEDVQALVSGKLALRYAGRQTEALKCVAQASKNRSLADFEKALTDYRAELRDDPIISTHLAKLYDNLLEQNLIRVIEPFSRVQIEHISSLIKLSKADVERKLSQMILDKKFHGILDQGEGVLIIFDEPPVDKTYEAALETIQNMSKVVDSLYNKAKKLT
UniProt Q5JS54, sequence (Q5JS54 whole entry): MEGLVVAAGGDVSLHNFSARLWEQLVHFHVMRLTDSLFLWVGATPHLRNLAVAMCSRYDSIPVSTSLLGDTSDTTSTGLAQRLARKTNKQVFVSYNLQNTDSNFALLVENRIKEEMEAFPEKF
UniProt P62333, sequence (P62333 whole entry): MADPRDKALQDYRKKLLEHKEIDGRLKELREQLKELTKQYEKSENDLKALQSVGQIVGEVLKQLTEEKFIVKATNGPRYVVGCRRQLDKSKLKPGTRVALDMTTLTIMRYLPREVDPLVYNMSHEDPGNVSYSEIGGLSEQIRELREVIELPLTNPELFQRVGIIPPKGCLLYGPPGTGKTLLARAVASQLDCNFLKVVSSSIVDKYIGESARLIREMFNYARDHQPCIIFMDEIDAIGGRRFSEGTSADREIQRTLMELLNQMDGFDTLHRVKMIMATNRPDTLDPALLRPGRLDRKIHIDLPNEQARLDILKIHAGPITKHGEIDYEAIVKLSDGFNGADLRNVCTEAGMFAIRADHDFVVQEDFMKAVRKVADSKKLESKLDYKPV
UniProt P35998, sequence (P35998 whole entry): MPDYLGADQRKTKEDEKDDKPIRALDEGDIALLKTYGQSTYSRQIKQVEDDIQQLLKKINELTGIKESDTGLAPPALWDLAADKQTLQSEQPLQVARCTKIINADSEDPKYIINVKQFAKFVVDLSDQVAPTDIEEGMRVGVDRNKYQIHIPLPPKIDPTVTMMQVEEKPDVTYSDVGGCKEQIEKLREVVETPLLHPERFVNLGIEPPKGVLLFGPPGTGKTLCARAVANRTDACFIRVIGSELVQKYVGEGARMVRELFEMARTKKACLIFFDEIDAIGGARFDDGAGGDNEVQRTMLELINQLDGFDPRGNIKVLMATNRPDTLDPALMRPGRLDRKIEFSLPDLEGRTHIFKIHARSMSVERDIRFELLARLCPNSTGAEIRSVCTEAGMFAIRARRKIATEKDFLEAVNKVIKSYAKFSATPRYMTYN
UniProt O43242, sequence (O43242 whole entry): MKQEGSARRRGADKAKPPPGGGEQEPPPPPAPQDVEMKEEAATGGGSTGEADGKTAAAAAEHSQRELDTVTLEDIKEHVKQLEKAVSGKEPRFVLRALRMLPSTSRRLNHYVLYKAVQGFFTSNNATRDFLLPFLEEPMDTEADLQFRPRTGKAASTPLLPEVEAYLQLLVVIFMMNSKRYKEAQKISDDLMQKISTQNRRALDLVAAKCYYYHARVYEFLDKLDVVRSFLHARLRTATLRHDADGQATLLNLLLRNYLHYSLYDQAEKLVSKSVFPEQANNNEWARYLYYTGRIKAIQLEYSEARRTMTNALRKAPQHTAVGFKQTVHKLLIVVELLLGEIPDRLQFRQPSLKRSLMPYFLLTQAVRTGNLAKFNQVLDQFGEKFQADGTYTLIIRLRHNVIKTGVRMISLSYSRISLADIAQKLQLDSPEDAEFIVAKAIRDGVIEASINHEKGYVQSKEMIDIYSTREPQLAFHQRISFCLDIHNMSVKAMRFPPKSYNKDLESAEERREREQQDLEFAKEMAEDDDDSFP

Target	thermal stability z-score (lipoamide; [1])	thermal stability z-score (lipoamide; arsenate co-treatment: none)	thermal stability z-score (potassium arsenate)
PSMC2 (UniProt P35998)	-0.293	-0.165	-0.134
PSMC3 (UniProt P17980)	-0.262	-0.0444	-0.44
PSMC4 (UniProt P43686)	-0.725	-0.18	-0.369
PSMC5 (UniProt P62195)	-0.299	-0.397	-0.667
PSMC6 (UniProt P62333)	0.467	0.219	-0.23
PSMD1 (UniProt Q99460)	0.651	0.343	0.245
PSMD2 (UniProt Q13200)	-0.29	-0.343	-0.333
PSMD3 (UniProt O43242)	0.084	0.0492	0.115
PSMD4 (UniProt P55036)	0.377	0.242	0.383
PSMD5 (UniProt Q16401)	0.166	0.024	0.282
PSMD6 (UniProt Q15008)	-0.22	0.0409	-0.212
PSMD7 (UniProt P51665)	-0.802	-0.0777	-0.475
PSMD8 (UniProt P48556)	0.814	0.532	-0.197
PSMD9 (UniProt O00233)	-0.33	0.295	-0.281
PSMD10 (UniProt O75832)	-0.817	0.0147	-0.327
PSMD11 (UniProt O00231)	-0.641	-0.384	-0.694
PSMD12 (UniProt O00232)	-0.0164	0.0811	-0.133
PSMD13 (UniProt Q9UNM6)	-0.244	0.13	-0.0407
PSMD14 (UniProt O00487)	0.501	0.524	-0.0143
PSME1 (UniProt Q06323)	-0.372	-0.217	0.405
PSME2 (UniProt Q9UL46)	0.493	0.0915	0.951
PSME3 (UniProt P61289)	0.957	0.849	0.504
PSME4 (UniProt Q14997)	-0.196	-0.198	-0.412
PSMF1 (UniProt Q92530)	-0.319	-0.0828	-0.0444
PSMG1 (UniProt O95456)	1.07	0.507	4.18
PSMG2 (UniProt Q969U7)	0.926	0.248	2.01
PSMG3 (UniProt Q9BT73)	0.436	-0.0166	0.28
PSMG4 (UniProt Q5JS54)	-1.42	-1.53	-1.38
